Data taken from article PMC8795738, “The Tarantula Venom Peptide Eo1a Binds to the Domain II S3-S4 Extracellular Loop of Voltage-Gated Sodium Channel NaV1.8 to Enhance Activation” (Frontiers in Pharmacology, 2022).
Where a SMILES comes first, the peptide text is derived from it. Bridges are numbered along the chain shown (N, C = ends).

Experiments:
[1] = tested on: TRPV1; assay: TRPV1 calcium assay (FLIPR); assay type: cell-based; conditions: Eo1a 10 μM, HEK293, rat TRPV1, Calcium 4 dye, 300 s, compared with capsaicin 300 nM, n = 3 wells
Procedure: (§1) Human Embryonic Kidney (HEK) 293 cells stably expressing human NaV1.1 to NaV1.7/β1 (SB Drug Discovery, Glasgow, United Kingdom), Chinese Hamster Ovary (CHO) cells stably expressing human NaV1.8/β3 in a tetracycline-inducible system (ChanTest, Cleveland, OH, United States), and HEK293 cells stably expressing rat transient receptor potential vanilloid 1 (TRPV1) were cultured as previously described ([Yin et al., 2020]). Human KV2.1 and NaV1.7 mutants were transiently transfected into HEK293 cells stably expressing β1/β2 using Lipofectamine 2000 (Thermo Fisher Scientific, Scoresby, VIC, Australia) and used for patch-clamp experiments 48 h after transfection. Cells were grown in an incubator at 37°C with 5% CO2 and passaged every 3–4 d (at 70–80% confluency) using TrypLE Express (Thermo Fisher Scientific).
The activity of Eo1a at rTRPV1 was assessed using the assay described previously ([Yin et al., 2020]). Briefly, the TRPV1 activator capsaicin (300 nM) and Eo1a (10 μM) were added to cells loaded with Calcium 4 no-wash dye (Molecular Devices) and changes in fluorescence were assessed using a FLIPR^TETRA (excitation 470–495 nm, emission 515–575 nm) every 1 s for 300 s. Fluorescence responses were normalized to baseline fluorescence (ΔF/F) and plotted versus time using ScreenWorks 3.2.0.14.

[2] = tested on: mice; assay: Spontaneous pain behaviours after intraplantar injection in mice; assay type: in vivo, mouse; conditions: 40 μl intraplantar, n = 3–4
From the text: Adult male C57BL/6J mice aged 4–8 weeks were sourced from the Animal Resource Centre (Canning Vale, Western Australia). Adult male NaV1.8 knockouts ([Nassar et al., 2004]) (aged 8–11 weeks) and wild-type littermates were housed and tested at University College London. Animals were housed in groups of three or four per cage under 12-h light-dark cycles and were provided with standard rodent chow and water ad libitum. Ethical approval for experiments involving animals was obtained from The University of Queensland animal ethics committee (TRI/IMB/093/17, IMB/PACE/421/18) and the United Kingdom Home Office (project licence PPL 70/7382). All experiments were conducted in accordance with the International Association for the Study of Pain Guidelines for the Use of Animals in Research and the Australian Code of Practice for the Care and Use of Animals for Scientific Purposes, 8th edition (2013).
Eo1a (1 μM or 10 μM) was diluted in saline/0.1% BSA and administered by intraplantar injection to the left hind paw of mice in a volume of 40 μl under isoflurane (3%) anaesthesia, and spontaneous pain behaviours (licks, bites, shakes, and lifts of the hind paw) were counted by a blinded investigator for up to 40 min after the injection.

[3] = tested on: NaV1.7 with DII S1-S2 loop of NaV1.8; assay: Voltage-dependence of activation, NaV1.7/NaV1.8 chimera DII S1-S2; assay type: cell-based, human; conditions: Eo1a 10 μM; NaV1.7 with NaV1.8 DII S1-S2; HEK293 β1/β2, transient; mean ± SEM, n = 3–6 cells
Procedure: as §1
Wild-type (WT) hNaV1.7 cDNA (NM_002,977, a gift from Dr James Cox, University College London) was subjected to in vitro site-directed mutagenesis using the QuikChange™ XL mutagenesis kit (Agilent Technologies) following the manufacturer’s instructions. NaV1.7 mutants were generated by substituting the domain II (DII) S1-S2 loop, the DII S3-S4 loop, the domain IV (DIV) S1-S2 loop and the DIV S3-S4 loop in NaV1.7 with the corresponding regions of NaV1.8. The mutations were verified by sequencing at the Brisbane node of the Australian Genome Research Facility. […]

## CC[C@H](C)[C@@H]1NC(=O)[C@H](CCCNC(=N)N)NC(=O)[C@@H]2CSSC[C@@H]3NC(=O)CNC(=O)CNC(=O)[C@H](CC(C)C)NC(=O)[C@H](Cc4ccccc4)NC(=O)[C@H](Cc4c[nH]c5ccccc45)NC(=O)[C@H](CCCNC(=N)N)NC(=O)[C@@H](NC(=O)[C@@H](N)CC(=O)O)CSSC[C@H](NC(=O)[C@H](CSSC[C@@H](C(=O)N[C@@H](C)C(=O)N[C@@H](Cc4c[nH]c5ccccc45)C(=O)N[C@@H](CC(=O)O)C(=O)NCC(=O)N[C@H](C(=O)N[C@@H](Cc4ccccc4)C(N)=O)[C@@H](C)O)NC(=O)[C@H](Cc4ccc(O)cc4)NC(=O)[C@H](CCCCN)NC(=O)[C@H]([C@@H](C)CC)NC(=O)[C@H](Cc4ccc(O)cc4)NC(=O)CNC(=O)[C@H](CC(=O)O)NC1=O)NC(=O)[C@H](CC(=O)O)NC(=O)[C@H](CO)NC(=O)[C@H](CC(=O)O)NC(=O)[C@H](CCCCN)NC(=O)[C@H](CO)NC3=O)C(=O)N[C@@H](CCCCN)C(=O)N[C@@H](Cc1c[nH]cn1)C(=O)N[C@@H](CC(C)C)C(=O)N[C@@H](C)C(=O)N2 [Eo1a] (H-DCRWFLGGCSKDSDCCKHLACRIDGYIKYCAWDGTF-NH2; disulfide 2-16, 9-21, 15-30 (inferred); N-terminus assumed)
[1]
  activity at TRPV1 (Ca2+ dye fluorescence over baseline): minimal activity
[2]; Eo1a 1 μM
  spontaneous pain behaviours: induced spontaneous pain behaviours
[2]; Eo1a 10 μM, gradually subsided over 30 min
  spontaneous pain behaviours: caused spontaneous pain behaviours that gradually subsided over 30 min
[3]
  ΔV1/2 activation: −3.7 ± 0.5 mV
